# Results taken from paper PMC3823026, “Protein–Protein Interaction Regulates the Direction of Catalysis and Electron Transfer in a Redox Enzyme Complex” (Journal of the American Chemical Society, 2013).
# What was measured:
# Format in all cases: biochemical
# [1] = molecular target: T1, CymA (Shewanella oneidensis, UniProt Q8E8S0); test: cyclic voltammetry, dithionite as reductant; conditions: 1 mM dithionite, pH 7.4, 21 °C, no Fcc3
# T1 construct: full-length recombinant tetraheme CymA (24 kDa), isolated from MR-1, reconstituted in POPC/cardiolipin membrane, no Fcc3
# T1 sequence (Q8E8S0 1-187): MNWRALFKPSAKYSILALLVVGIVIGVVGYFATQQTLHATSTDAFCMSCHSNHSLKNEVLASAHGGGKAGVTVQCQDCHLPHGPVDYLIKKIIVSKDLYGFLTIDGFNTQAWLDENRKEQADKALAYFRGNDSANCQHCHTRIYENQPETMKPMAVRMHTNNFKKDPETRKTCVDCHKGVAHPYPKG
# [2] = molecular target: T2, CymA-Fcc3 complex (Shewanella oneidensis, UniProt Q8E8S0); test: cyclic voltammetry, membrane-modified gold electrode, MQ-7 content varied; conditions: fumarate 1 mM as acceptor, pH 7.4, 21 °C; MQ-7 in membrane as % (w/w); Michaelis-Menten fit, constant not given
# T2 construct: isolated from MR-1; with Fumarate reductase (cytochrome), flavocytochrome c3
# T2 sequence (Q8E8S0 1-187): T1 sequence (Q8E8S0 1-187)
# T2 sequence (P83223 26-596 partner): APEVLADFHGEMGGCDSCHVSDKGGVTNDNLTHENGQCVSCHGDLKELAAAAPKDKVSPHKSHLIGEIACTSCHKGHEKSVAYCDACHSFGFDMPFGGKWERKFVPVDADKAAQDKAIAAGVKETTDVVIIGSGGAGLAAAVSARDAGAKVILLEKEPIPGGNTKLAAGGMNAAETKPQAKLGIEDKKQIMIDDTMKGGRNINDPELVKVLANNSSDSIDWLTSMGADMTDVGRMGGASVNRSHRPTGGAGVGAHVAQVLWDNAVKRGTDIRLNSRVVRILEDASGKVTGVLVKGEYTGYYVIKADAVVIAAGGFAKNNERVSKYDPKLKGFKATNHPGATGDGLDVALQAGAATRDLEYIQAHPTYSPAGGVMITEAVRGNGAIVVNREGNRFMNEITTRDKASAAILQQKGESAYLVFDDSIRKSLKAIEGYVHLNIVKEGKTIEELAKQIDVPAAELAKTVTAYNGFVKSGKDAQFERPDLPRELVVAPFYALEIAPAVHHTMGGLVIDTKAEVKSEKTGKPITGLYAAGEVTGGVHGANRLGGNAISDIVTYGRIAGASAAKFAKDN
# [3] = molecular target: T1, CymA; test: cyclic voltammetry, catalytic oxidation current with dithionite (menaquinone reduction); conditions: 1 mM dithionite, 1% (w/w) MQ-7, pH 7.4, 21 °C
# [4] = molecular target: T2, CymA-Fcc3 complex; test: cyclic voltammetry, catalytic fumarate reduction current on membrane-modified gold electrode; conditions: 1 mM fumarate, 1% (w/w) MQ-7, pH 7.4, 21 °C; competitive quinol-site inhibitor
# [5] = molecular target: T3, Fcc3 (Shewanella oneidensis, UniProt P83223); test: cyclic voltammetry, catalytic reduction current; conditions: 1 mM fumarate, electrons from MQ-7 via CymA, pH 7.4, 21 °C
# T3 construct: gene fccA; monomer in solution; with Membrane anchored tetraheme cytochrome c CymA
# T3 sequence (P83223 26-596): T2 sequence (P83223 26-596 partner)
# T3 sequence (Q8E8S0 1-187 partner): T1 sequence (Q8E8S0 1-187)
structure (smiles),measurement,setting,value
CC(C)=CCC/C(C)=C/CC/C(C)=C/CC/C(C)=C/CC/C(C)=C/CC/C(C)=C/CC/C(C)=C/CC1=C(C)C(=O)c2ccccc2C1=O [Menaquinone-7],"cyclic voltammetry, dithionite as reductant",[1],CymA is only able to reduce MQ-7 in the absence of Fcc3
CC(C)=CCC/C(C)=C/CC/C(C)=C/CC/C(C)=C/CC/C(C)=C/CC/C(C)=C/CC/C(C)=C/Cc1c(C)c(O)c2ccccc2c1O [menaquinol-7],"cyclic voltammetry, membrane-modified gold electrode, MQ-7 content varied",[2],the CymA-Fcc3 complex is able to oxidize MQ-7 in SSMs
"CCCCCCCc1cc(O)c2ccccc2[n+]1[O-] [2-n-heptyl-4-hydroxyquinoline N-oxide, 2-n-Heptyl-4-hydroxyquinoline N-oxide]",inhibition at 10 μM,[3],a catalytic oxidation signal appears that is inhibited by addition of HQNO
same,inhibition at 10 μM,[4],The addition of HQNO inhibited catalytic fumarate reduction (Figure 2B)
O=C(O)/C=C/C(=O)O [fumarate],"cyclic voltammetry, catalytic reduction current",[5],addition of fumarate had a large effect on the appearance of the CV
